Assay results: US20020082452A1, “alpha-sulfin-and alpha-sulfonamino acid amides” (priority 1998, published 2002)

How the values were obtained:
Format in all cases: in vivo
Plasmopara viticola = test: D-1: Action against Plasmopara viticola on vines (residual-protective and residual-curative action); details: vine seedlings, spray mixture 0.02% active ingredient, evaluated after 6 days at 95-100% relative humidity and 20° C.
Protocol: D-1: Action against Plasmopara viticola on Vines a) Residual-Protective Action
Vine seedlings are sprayed at the 4- to 5-leaf stage with a spray mixture (0.02% active ingredient) prepared from a wettable powder formulation of the test compound. After 24 hours, the treated plants are infected with a sporangia suspension of the fungus. Fungus infestation is evaluated after incubation for 6 days at 95-100% relative humidity and 20° C. […]
b) Residual-Curative Action
Vine seedlings are infected at the 4- to 5-leaf stage with a sporangia suspension of the fungus. After incubation for 24 hours in a humidity chamber at 95-100% relative humidity and 20° C., the infected plants are dried and sprayed with a spray mixture (0.02% active ingredient) prepared from a wettable powder formulation of the test compound. After the spray coating has dried, the treated plants are placed in the humidity chamber again. Fungus infestation is evaluated 6 days after infection. […] Compounds A1.02, A1.03, A1.04, A1.03, A1.5, A1.06, A1.07, A1.09, A1.10, A1.13, A1.14, A1.15, A1.16, A1.21, A1.23.

Phytophthora [1] = test: D-3: Action against Phytophthora on potato plants (residual-protective and systemic action); details: potato plants (Bintje variety), spray mixture 0.02% active ingredient (sprayed or watered), evaluated after 4 days at 90-100% relative humidity and 20° C.
Protocol: D-3 Action Against Phytophthora on Potato Plants
(§1) a) Residual-Protective Action
(§2) 2-3 week old potato plants (Bintje variety) are sprayed with a spray mixture (0.02% active ingredient) prepared from a wettable powder formulation of the test compound. After 48 hours, the treated plants are infected with a sporangia suspension of the fungus. Fungus infestation is evaluated after incubation of the infected plants for 4 days at 90-100% relative humidity and 20° C.
as §2, with “watered” for “sprayed”, “ingredient based on the volume of the soil)” for “ingredient)”, “compound. […]” for “compound.”, “C. Fungal infestation is effectively controlled with compounds of Tables 1 to 37. Compounds A1.02, A1.03, A1.04, A1.03, A1.05, A1.06, A1.07, A1.09, A1.10, A1.13, A1.14, A1.15, A1.16, A1.21, A1.23.” for “C.”

Phytophthora [2] = test: D-2: Action against Phytophthora on tomato plants (residual-protective and systemic action); details: spray mixture 0.02% active ingredient (sprayed or watered), evaluated after 4-5 days at 90-100% relative humidity and 20° C.
Protocol: D-2: Action Against Phytophthora on Tomato Plants
as §1
(§3) After a cultivation period of 3 weeks, tomato plants are sprayed with a spray mixture (0.02% active ingredient) prepared from a wettable powder formulation of the test compound. After 48 hours, the treated plants are infected with a sporangia suspension of the fungus. Fungus infestation is evaluated after incubation of the infected plants for 5 days at 90-100% relative humidity and 20° C.
as §3, with “watered” for “sprayed”, “ingredient based on the volume of the soil)” for “ingredient)”, “compound. […]” for “compound.”, “96” for “48”, “4” for “5”, “C. […] Compounds A1.02, A1.03, A1.04, A1.03, A1.05, A1.06, A1.07, A1.09, A1.10, A1.13, A1.14, A1.15, A1.16, A1.21, A1.23.” for “C.”

Measured: Fungus infestation

COc1cc(CCNC(=O)C(NS(C)(=O)=O)C(C)C)ccc1OC(C)COc1ccc(Cl)cc1 (mixture of isomers) [Compound A1.80]
completely inhibit fungal infestation: all assays above

C#CCC(NS(=O)(=O)CC)C(=O)NCCc1ccc(OCC=Cc2ccc(Cl)cc2)c(OC)c1 (racemic) [Compound A1.108]
completely inhibit fungal infestation: all assays above

COc1cc(CCNC(=O)[C@@H](NS(C)(=O)=O)C(C)C)ccc1OCCOc1ccc(F)cc1 [Compound A1.02]
completely inhibit fungal infestation: all assays above

COc1cc(CCNC(=O)[C@@H](NS(=O)(=O)N(C)C)C(C)C)ccc1OCCOc1ccc(F)cc1 [Compound A1.03]
completely inhibit fungal infestation: all assays above

CCC[C@H](NS(=O)(=O)CC)C(=O)NCCc1ccc(OCCOc2ccc(F)cc2)c(OC)c1 [Compound A1.04]
completely inhibit fungal infestation: all assays above

CC[C@H](NS(=O)(=O)CC)C(=O)NCCc1ccc(OCCOc2ccc(F)cc2)c(OC)c1 [Compound A1.05]
completely inhibit fungal infestation: all assays above

CCS(=O)(=O)N[C@H](C(=O)NCCc1ccc(OCCOc2ccccc2)c(OC)c1)C(C)C [Compound A1.06]
completely inhibit fungal infestation: all assays above

COc1cc(CCNC(=O)[C@@H](NS(C)(=O)=O)C(C)C)ccc1OCCOc1ccccc1 [Compound A1.07]
completely inhibit fungal infestation: all assays above

CCC[C@H](NS(=O)(=O)CC)C(=O)NCCc1ccc(OCCOc2ccccc2)c(OC)c1 [Compound A1.09]
completely inhibit fungal infestation: all assays above

CC[C@H](NS(=O)(=O)CC)C(=O)NCCc1ccc(OCCOc2ccccc2)c(OC)c1 [Compound A1.10]
completely inhibit fungal infestation: all assays above

CCS(=O)(=O)N[C@H](C(=O)NCCc1ccc(OCCOc2ccc(Cl)cc2)c(OC)c1)C(C)C [Compound A1.13]
completely inhibit fungal infestation: all assays above

COc1cc(CCNC(=O)[C@@H](NS(C)(=O)=O)C(C)C)ccc1OCCOc1ccc(Cl)cc1 [Compound A1.14]
completely inhibit fungal infestation: all assays above

CC[C@H](NS(=O)(=O)CC)C(=O)NCCc1ccc(OCCOc2ccc(Cl)cc2)c(OC)c1 [Compound A1.15]
completely inhibit fungal infestation: all assays above

CCC[C@H](NS(=O)(=O)CC)C(=O)NCCc1ccc(OCCOc2ccc(Cl)cc2)c(OC)c1 [Compound A1.16]
completely inhibit fungal infestation: all assays above

CCS(=O)(=O)N[C@H](C(=O)NCCc1ccc(OCCOc2ccccc2Cl)c(OC)c1)C(C)C [Compound A1.21]
completely inhibit fungal infestation: all assays above

CCS(=O)(=O)N[C@H](C(=O)NCCc1ccc(OCCOc2cccc(F)c2)c(OC)c1)C(C)C [Compound A1.23]
completely inhibit fungal infestation: all assays above

CCS(=O)(=O)N[C@H](C(=O)NCCc1ccc(OCCOc2ccc(C)cc2)c(OC)c1)C(C)C [Compound A1.24]
completely inhibit fungal infestation: all assays above

CCS(=O)(=O)N[C@H](C(=O)NCCc1ccc(OCCOc2cccc(C)c2)c(OC)c1)C(C)C [Compound A1.25]
completely inhibit fungal infestation: all assays above

COc1cc(CCNC(=O)[C@@H](NS(C)(=O)=O)C(C)C)ccc1OCCOc1ccc(Cl)c(Cl)c1 [Compound A1.75]
completely inhibit fungal infestation: all assays above

COc1cc(CCNC(=O)[C@@H](NS(C)(=O)=O)C(C)C)ccc1OCCOc1cccc(F)c1 [Compound A1.76]
completely inhibit fungal infestation: all assays above

COc1cc(CCNC(=O)[C@@H](NS(C)(=O)=O)C(C)C)ccc1OCCSc1ccc(Cl)cc1 [Compound A1.78]
completely inhibit fungal infestation: all assays above

CCS(=O)(=O)N[C@H](C(=O)NCCc1ccc(OCC=Cc2ccc(Cl)cc2)c(OC)c1)C1CCC1 [Compound A1.107]
completely inhibit fungal infestation: all assays above

CCS(=O)(=O)N[C@H](C(=O)NCCc1ccc(OC/C=C/c2ccc(Cl)cc2)c(OC)c1)C(C)C [Compound A2.03]
completely inhibit fungal infestation: all assays above

COc1cc(CCNC(=O)[C@@H](NS(C)(=O)=O)C(C)C)ccc1OC/C=C/c1ccc(Cl)cc1 [Compound A2.04]
completely inhibit fungal infestation: all assays above

CCS(=O)(=O)N[C@H](C(=O)NCCc1ccc(OC/C=C/c2ccccc2F)c(OC)c1)C(C)C [Compound A2.09]
completely inhibit fungal infestation: all assays above

COc1cc(CCNC(=O)[C@@H](NS(C)(=O)=O)C(C)C)ccc1OC/C=C/c1ccccc1F [Compound A2.10]
completely inhibit fungal infestation: all assays above
